According to the NIST ThermoML archive (doi:10.1021/je400861g):
± gives the expanded uncertainty stated by the source.

Experiment: mn = molality of the nth substance listed, in mol/kg
Settings: 298.15 K; for surface tension liquid-gas: Ring tensiometer; for electrical conductivity: 101 kPa, Liquid, DDS-11A conductometer

CCCCCCCCCCCCCCCCn1cc[n+](C)c1.F[B-](F)(F)F [1-hexadecyl-3-methylimidazolium tetrafluoroborate] + O
Settings	electrical conductivity [S/m]	surface tension liquid-gas [mN/m]
m1 = 3e-06	0.0022 ± 0.002	–
m1 = 5e-06	0.0022 ± 0.0022	–
m1 = 7e-06	0.0024 ± 0.002	–
m1 = 1e-05	–	52.9 ± 2.2
m1 = 2e-05	–	47.9 ± 2
m1 = 3e-05	–	43.8 ± 1.5
m1 = 5e-05	0.007 ± 0.0021	38.4 ± 1.2
m1 = 7e-05	0.0103 ± 0.0021	34.9 ± 0.8
m1 = 0.0001	0.0142 ± 0.002	36.7 ± 0.8
m1 = 0.0002	0.0203 ± 0.002	37 ± 0.8
m1 = 0.0003	0.0265 ± 0.002	36.4 ± 0.8
m1 = 0.0005	0.0372 ± 0.002	35.2 ± 0.7
m1 = 0.0007	0.0462 ± 0.002	35.2 ± 0.7
m1 = 0.001	0.0593 ± 0.002	–

CCCCCCCCCCCCCCn1cc[n+](C)c1.F[B-](F)(F)F [3-methyl-1-tetradecyl-1H-imidazol-3-ium tetrafluoroborate] + O
Settings	electrical conductivity [S/m]	surface tension liquid-gas [mN/m]
m1 = 0.0001	–	47.9 ± 0.9
m1 = 0.00018	–	41.9 ± 0.8
m1 = 0.0003	0.032 ± 0.002	39 ± 0.8
m1 = 0.0006	0.0344 ± 0.002	33.6 ± 0.7
m1 = 0.001	0.036 ± 0.002	29.9 ± 0.7
m1 = 0.0018	0.0368 ± 0.002	28.4 ± 0.7
m1 = 0.003	0.0376 ± 0.002	27.8 ± 0.7
m1 = 0.006	0.0393 ± 0.002	27.6 ± 0.7
m1 = 0.01	0.0423 ± 0.002	27.3 ± 0.7
m1 = 0.018	0.0487 ± 0.002	27 ± 0.7
m1 = 0.03	0.0543 ± 0.002	–
m1 = 0.04	0.0633 ± 0.002	–
m1 = 0.06	0.0732 ± 0.002	–

CCCCCCCCCCCC[n+]1ccn(C)c1.F[B-](F)(F)F [1-dodecyl-3-methylimidazolium tetrafluoroborate] + O
Settings	electrical conductivity [S/m]	surface tension liquid-gas [mN/m]
m1 = 0.0003	0.0324 ± 0.002	56.4 ± 0.9
m1 = 0.0006	0.0346 ± 0.002	50.4 ± 0.9
m1 = 0.001	0.0379 ± 0.002	43.1 ± 0.8
m1 = 0.0018	0.0455 ± 0.002	34.3 ± 0.7
m1 = 0.003	0.0553 ± 0.002	29.6 ± 0.7
m1 = 0.006	0.0629 ± 0.002	28.2 ± 0.7
m1 = 0.008	0.064 ± 0.002	28.3 ± 0.7
m1 = 0.01	0.0653 ± 0.002	28.2 ± 0.7
m1 = 0.018	0.0712 ± 0.002	28.3 ± 0.7
m1 = 0.03	0.0809 ± 0.002	28 ± 0.7
m1 = 0.04	0.091 ± 0.002	–
m1 = 0.06	0.11 ± 0.002	27.7 ± 0.7
